Source: ChEMBL document CHEMBL1811766, “Structure-activity relationship studies of novel pyrazole and imidazole carboxamides as cannabinoid-1 (CB1) antagonists” (Bioorg Med Chem Lett, 2011)

Experiments:
[1] = target: Cannabinoid receptor 1 (Rattus norvegicus, UniProt P20272); test: Displacement of [3H]SR141716A from rat brain CB1 receptor at pH 7.4 after 1 hr by liquid scintillation counting
[2] = target: Cannabinoid receptor 1 (Rattus norvegicus) (UniProt P20272); test: Displacement of [3H]SR141716A from rat brain CB1 receptor at 1 uM at pH 7.4 after 1 hr by liquid scintillation counting
Cannabinoid receptor 1 (Rattus norvegicus), sequence (P20272 whole entry): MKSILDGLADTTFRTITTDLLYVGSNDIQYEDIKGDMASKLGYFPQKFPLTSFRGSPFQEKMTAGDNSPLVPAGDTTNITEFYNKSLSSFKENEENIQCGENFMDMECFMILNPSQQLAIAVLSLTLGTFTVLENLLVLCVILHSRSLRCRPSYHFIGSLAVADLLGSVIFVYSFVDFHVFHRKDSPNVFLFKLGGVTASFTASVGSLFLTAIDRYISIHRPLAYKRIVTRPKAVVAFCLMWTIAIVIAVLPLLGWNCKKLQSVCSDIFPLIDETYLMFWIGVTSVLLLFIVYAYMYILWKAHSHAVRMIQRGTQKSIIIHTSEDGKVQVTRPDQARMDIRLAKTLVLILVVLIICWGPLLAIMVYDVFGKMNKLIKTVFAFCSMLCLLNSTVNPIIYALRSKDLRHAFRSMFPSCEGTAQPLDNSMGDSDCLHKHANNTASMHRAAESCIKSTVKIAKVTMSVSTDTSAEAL

[3] = tested on: Mus musculus; test: Antiobesity activity in C57BL/6 mouse assessed as reduction in body weight at 10 mg/kg, po QD for 15 days; type: functional; set-up: scale not given: the % may be the effect or the level left
[4] = AUC (0 to 24 hrs) in Swiss albino mouse at 30 mg/kg, po; type: ADME, organism-based; set-up: time < 24 hr, dose 30 mg/kg, route oral; details: plasma
[5] = tested on: Mus musculus; test: Inhibition of WIN-55212 induced hypothermia in Swiss albino mouse assessed as change temperature at 10 mg/kg, po administered 30 mins after WIN55212 challenge measured after 30 mins; type: functional; details: 0.5 h
[6] = tested on: Mus musculus; test: Antiobesity activity in Swiss albino mouse assessed as reduction in acute food intake at 30 mg/kg, po administered as single dose relative to control; type: functional; set-up: scale not given: the % may be the effect or the level left
[7] = Half life in Swiss albino mouse at 30 mg/kg, po; type: ADME, organism-based; set-up: dose 30 mg/kg, route oral; details: in vivo
[8] = target: T1, hERG (KCNH2) (Homo sapiens, UniProt Q12809); test: Inhibition of human ERG expressed in HEK293 cells assessed as inhibition of potassium channel current at 30 uM after 5 mins by patch clamp assay; type: cell-based; details: HEK293 cells expressing human ERG
T1 sequence (Q12809 whole entry): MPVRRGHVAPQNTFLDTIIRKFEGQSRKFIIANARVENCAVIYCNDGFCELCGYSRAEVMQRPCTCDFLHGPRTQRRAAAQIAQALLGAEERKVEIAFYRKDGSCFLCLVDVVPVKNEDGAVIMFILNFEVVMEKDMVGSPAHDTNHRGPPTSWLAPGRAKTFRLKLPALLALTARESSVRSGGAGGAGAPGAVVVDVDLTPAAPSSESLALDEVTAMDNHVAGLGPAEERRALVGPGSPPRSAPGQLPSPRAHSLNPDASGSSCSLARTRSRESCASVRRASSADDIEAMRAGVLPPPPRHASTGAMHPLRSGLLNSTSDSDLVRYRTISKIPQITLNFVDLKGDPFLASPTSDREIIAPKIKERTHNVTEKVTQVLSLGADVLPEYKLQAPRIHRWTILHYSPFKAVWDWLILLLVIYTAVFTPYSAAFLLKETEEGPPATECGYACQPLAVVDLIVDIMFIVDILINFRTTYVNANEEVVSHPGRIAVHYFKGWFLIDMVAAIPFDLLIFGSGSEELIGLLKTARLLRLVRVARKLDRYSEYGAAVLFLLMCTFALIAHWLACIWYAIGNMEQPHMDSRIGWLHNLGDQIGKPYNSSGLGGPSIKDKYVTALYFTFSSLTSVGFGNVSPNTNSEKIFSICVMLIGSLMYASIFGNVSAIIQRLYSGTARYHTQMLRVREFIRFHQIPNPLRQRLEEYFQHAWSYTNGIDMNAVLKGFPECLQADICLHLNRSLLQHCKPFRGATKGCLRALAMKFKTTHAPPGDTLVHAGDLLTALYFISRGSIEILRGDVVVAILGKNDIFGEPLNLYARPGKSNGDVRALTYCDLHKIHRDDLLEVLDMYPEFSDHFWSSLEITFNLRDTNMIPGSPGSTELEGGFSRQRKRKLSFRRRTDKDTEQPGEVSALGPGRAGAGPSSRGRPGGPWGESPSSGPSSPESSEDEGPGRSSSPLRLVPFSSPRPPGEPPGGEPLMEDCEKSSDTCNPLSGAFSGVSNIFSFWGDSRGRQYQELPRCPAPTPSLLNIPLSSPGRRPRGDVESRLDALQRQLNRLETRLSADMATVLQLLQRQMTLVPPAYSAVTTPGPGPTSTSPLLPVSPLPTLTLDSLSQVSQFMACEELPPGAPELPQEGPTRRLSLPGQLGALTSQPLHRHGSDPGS

[9] = tested on: Mus musculus; test: Antiobesity activity in Swiss albino mouse assessed as reduction in acute food intake administered orally as single dose; type: functional, organism-based
[10] = target: Voltage-gated inwardly rectifying potassium channel KCNH2 (Homo sapiens, UniProt Q12809); test: Inhibition of human ERG expressed in HEK293 cells assessed as inhibition of potassium channel current after 5 mins by patch clamp assay; type: cell-based
Voltage-gated inwardly rectifying potassium channel KCNH2, sequence (Q12809 whole entry): as above

[11] = target: Cannabinoid receptor 2 (Homo sapiens) (UniProt P34972); test: Displacement of [3H]CP55940 from human cannabinoid CB2 receptor expressed in CHO cells at 1 uM at pH 7.4 after 1 hr by liquid scintillation counting; type: cell-based
Cannabinoid receptor 2 (Homo sapiens), sequence (P34972 whole entry): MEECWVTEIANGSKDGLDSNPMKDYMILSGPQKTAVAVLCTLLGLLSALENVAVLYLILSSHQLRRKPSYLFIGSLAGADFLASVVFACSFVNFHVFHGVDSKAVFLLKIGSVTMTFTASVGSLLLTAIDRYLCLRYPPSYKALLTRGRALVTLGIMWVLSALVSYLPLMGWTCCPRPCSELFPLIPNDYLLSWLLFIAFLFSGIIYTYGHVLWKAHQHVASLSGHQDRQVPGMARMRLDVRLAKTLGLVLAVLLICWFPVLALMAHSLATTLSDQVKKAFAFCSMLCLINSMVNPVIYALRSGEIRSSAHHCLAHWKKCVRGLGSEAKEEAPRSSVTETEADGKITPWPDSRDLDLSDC

[12] = Ratio of drug level in brain to plasma in Swiss albino mouse at 30 mg/kg, po measured 1 hr post dose; type: ADME, organism-based; set-up: dose 30 mg/kg, route oral; details: read-out: BPR
[13] = tested on: Mus musculus; test: Antiobesity activity in Swiss albino mouse assessed as reduction in acute food intake at 10 mg/kg, po administered as single dose relative to control; type: functional; set-up: scale not given: the % may be the effect or the level left
[14] = Cmax in Swiss albino mouse at 30 mg/kg, po; type: ADME, organism-based; set-up: dose 30 mg/kg, route oral; details: in vivo
[15] = target: Cannabinoid receptor 1 (Rattus norvegicus) (UniProt P20272); test: Displacement of [3H]SR141716A from rat brain CB1 receptor at 100 nM at pH 7.4 after 1 hr by liquid scintillation counting
[16] = tested on: Mus musculus; test: Inhibition of WIN-55212 induced hypothermia in Swiss albino mouse assessed as change temperature at 3 mg/kg, po administered 30 mins after WIN55212 challenge measured after 30 mins; type: functional; details: 0.5 h
[17] = target: T1, hERG (KCNH2); test: Inhibition of human ERG expressed in HEK293 cells assessed as inhibition of potassium channel current at 10 uM after 5 mins by patch clamp assay; type: cell-based; details: HEK293 cells expressing human ERG

Cannabinoid receptor 1, sequence (P20272 whole entry): as the sequence (P20272 whole entry) above

SMILES: CCc1c(C(=O)NC(C)(C)c2nnnn2C)nn(-c2ccc(Cl)cc2Cl)c1-c1ccc(OCC(=O)O)cc1
- IC50 [1]: > 1000 nM
- inhibition [2]: 25%

SMILES: Cc1c(C(=O)NC2(c3noc(C(F)(F)F)n3)CCC2)nn(-c2ccc(Cl)cc2Cl)c1-c1ccc(Cl)cc1
- IC50 [1]: 0.8 nM

SMILES: Cc1c(C(=O)NC(C)(C)c2noc(C(F)(F)F)n2)nn(-c2ccc(Cl)cc2Cl)c1-c1ccc(Cl)cc1
- IC50 [1]: 3 nM

SMILES: Cc1c(C(=O)NC2(c3noc(C(F)(F)F)n3)CC2)nn(-c2ccc(Cl)cc2Cl)c1-c1ccc(Cl)cc1
- Activity [3]: 11%
- IC50 [1]: 0.1 nM
- AUC(0-t) at 24 h [4]: 4300 ng·h/mL
- inhibition in vivo at 10 mg/kg [5]: 97%
- Activity [6]: 53%
- half-life [7]: 4.22 h
- inhibition at 5 min, 30 µM [8]: 7.2%
- Activity [9]: Dose-dependent effect
- IC50 [10]: > 30000 nM
- inhibition [11]: 49%
- Kp at 1 h [12]: 0.21
- Activity [13]: 31%
- Cmax [14]: 350 ng/mL

SMILES: Cc1c(C(=O)NC(C)(C)c2nnc(C(F)(F)F)o2)nn(-c2ccc(Cl)cc2Cl)c1-c1ccc(Cl)cc1
- IC50 [1]: 6 nM
- inhibition in vivo at 10 mg/kg [5]: 97%
- inhibition [11]: 64%

SMILES: CCOC(=O)c1sc(C(C)(C)NC(=O)c2nn(-c3ccc(Cl)cc3Cl)c(-c3ccc(Cl)cc3)c2C)nc1C
- IC50 [1]: 22 nM

SMILES: Cn1nnnc1C(C)(C)NC(=O)c1nn(-c2ccc(Cl)cc2Cl)c2c1CCCc1cc(Cl)ccc1-2
- IC50 [1]: 31 nM

SMILES: O=C(NC1(c2noc(C(F)(F)F)n2)CC1)c1nn(-c2ccc(Cl)cc2Cl)c(-c2ccc(Cl)cc2)c1C(=O)O
- inhibition [15]: 44%
- inhibition [2]: 66%

SMILES: COCc1c(C(=O)NC(C)(C)c2noc(C(F)(F)F)n2)nn(-c2ccc(Cl)cc2Cl)c1-c1ccc(Cl)cc1
- IC50 [1]: 4 nM

SMILES: CCc1c(C(=O)NC(C)(C)c2noc(C(F)(F)F)n2)nc(-c2ccc(Cl)cc2Cl)n1-c1ccc(Cl)cc1
- IC50 [1]: 3 nM

SMILES: Cc1csc(C(C)(C)NC(=O)c2nn(-c3ccc(Cl)cc3Cl)c(-c3ccc(Cl)cc3)c2C)n1
- IC50 [1]: 15 nM

SMILES: C[C@H](NC(=O)C(C)(C)Oc1ccc(C(F)(F)F)cn1)[C@@H](Cc1ccc(Cl)cc1)c1cccc(C#N)c1 [TARANABANT]
- IC50 [1]: 0.3 nM

SMILES: Cc1c(C(=O)NC(C)(C)c2cn3cc(Cl)ccc3n2)nn(-c2ccc(Cl)cc2Cl)c1-c1ccc(Cl)cc1
- IC50 [1]: 88 nM

SMILES: CCc1c(C(=O)NC(C)(C)c2nnnn2C)nn(-c2ccc(Cl)cc2Cl)c1-c1ccc(O)cc1
- inhibition [15]: 23%

SMILES: CCc1c(C(=O)NC(C)(C)c2nnnn2C)nn(-c2ccc(Cl)cc2Cl)c1-c1ccc(C#N)cc1
- IC50 [1]: 22 nM

SMILES: CC(C)(NC(=O)c1nn(-c2ccc(Cl)cc2Cl)c(-c2ccc(Cl)cc2)c1CO)c1noc(C(F)(F)F)n1
- IC50 [1]: 0.4 nM
- inhibition in vivo at 10 mg/kg [5]: 97%
- inhibition at 5 min, 30 µM [8]: 38.9%
- IC50 [10]: > 30000 nM
- inhibition [11]: 34%

SMILES: Cc1c(C(=O)NC(C)(C)c2nnnn2C)nc(-c2ccc(Cl)cc2Cl)n1-c1ccc(Cl)cc1
- inhibition [15]: 42%

SMILES: Cc1c(C(=O)NN2CCCCC2)nn(-c2ccc(Cl)cc2Cl)c1-c1ccc(Cl)cc1 [RIMONABANT]
- IC50 [10]: 2790 nM
- inhibition [11]: 34%
- Kp at 1 h [12]: 3.64
- Activity [13]: 71%
- inhibition in vivo at 3 mg/kg [16]: 99%

SMILES: CCOC(=O)c1c(C(=O)NC2(c3noc(C(F)(F)F)n3)CC2)nn(-c2ccc(Cl)cc2Cl)c1-c1ccc(Cl)cc1
- IC50 [1]: 1 nM

SMILES: CCc1c(C(=O)NC(C)(C)c2nnnn2C)nc(-c2ccc(Cl)cc2Cl)n1-c1ccc(Cl)cc1
- IC50 [1]: 36 nM

SMILES: Cc1c(C(=O)NC(C)(C)c2cn3cc(C(F)(F)F)ccc3n2)nn(-c2ccc(Cl)cc2Cl)c1-c1ccc(Cl)cc1
- IC50 [1]: 63 nM

SMILES: CCc1c(C(=O)NC(C)(C)c2nnn(C)n2)nn(-c2ccc(Cl)cc2Cl)c1-c1ccc(Cl)cc1
- IC50 [1]: 39 nM

SMILES: CC(C)(NC(=O)c1cn(-c2ccc(Cl)cc2Cl)c(-c2ccc(Cl)cc2)n1)c1nnc(C(F)(F)F)o1
- IC50 [1]: 13 nM

SMILES: CCOC(=O)Cc1csc(C(C)(C)NC(=O)c2nn(-c3ccc(Cl)cc3Cl)c(-c3ccc(Cl)cc3)c2C)n1
- IC50 [1]: 10 nM

SMILES: Cc1c(C(=O)NC(C)(C)c2cn3cccnc3n2)nn(-c2ccc(Cl)cc2Cl)c1-c1ccc(Cl)cc1
- IC50 [1]: 121 nM

SMILES: Cc1ncc(C(C)(C)NC(=O)c2nn(-c3ccc(Cl)cc3Cl)c(-c3ccc(Cl)cc3)c2C)s1
- IC50 [1]: 12 nM

SMILES: CCCS(=O)(=O)Oc1ccc(-c2c(C)c(C(=O)NC(C)(C)c3nnnn3C)nn2-c2ccc(Cl)cc2Cl)cc1
- IC50 [1]: 1.1 nM

SMILES: Cc1c(C(=O)NC(C)(C)c2nnnn2C)nn(-c2ccc(Cl)cc2Cl)c1-c1ccc(Cl)cc1
- IC50 [1]: 145 nM

SMILES: CCc1c(C(=O)NC(C)(C)c2nnnn2C)nn(-c2ccc(Cl)cc2Cl)c1-c1ccc(C(=O)O)cc1
- inhibition [2]: 50%

SMILES: CCOC(=O)c1ccc(-c2c(CC)c(C(=O)NC(C)(C)c3nnnn3C)nn2-c2ccc(Cl)cc2Cl)cc1
- IC50 [1]: 17 nM

SMILES: Cc1nc(C(C)(C)NC(=O)c2nn(-c3ccc(Cl)cc3Cl)c(-c3ccc(Cl)cc3)c2C)no1
- IC50 [1]: 33 nM

SMILES: Cc1c(C(=O)NC(C)(C)c2nnn(C)n2)nn(-c2ccc(Cl)cc2Cl)c1-c1ccc(Cl)cc1
- IC50 [1]: 88 nM

SMILES: O=C(NC1(c2noc(C(F)(F)F)n2)CC1)c1nn(-c2ccc(Cl)cc2Cl)c(-c2ccc(Cl)cc2)c1CO
- IC50 [1]: 0.1 nM
- inhibition in vivo at 10 mg/kg [5]: 99%
- inhibition [11]: 18%

SMILES: COc1ccc2c(c1)CCCc1c(C(=O)NC(C)(C)c3nnnn3C)nn(-c3ccc(Cl)cc3Cl)c1-2
- inhibition [15]: 38%

SMILES: CCc1c(C(=O)NC(C)(C)c2nnnn2C)nn(-c2ccc(Cl)cc2Cl)c1-c1ccc(Cl)cc1
- IC50 [1]: 0.5 nM
- inhibition in vivo at 10 mg/kg [5]: 96%
- inhibition [11]: 16%
- inhibition at 5 min, 10 µM [17]: 59.7%

SMILES: CC(C)(NC(=O)c1cn(-c2ccc(Cl)cc2Cl)c(-c2ccc(Cl)cc2)n1)c1noc(C(F)(F)F)n1
- IC50 [1]: 30 nM

SMILES: Cc1c(C(=O)NC(C)(C)c2cn3ccsc3n2)nn(-c2ccc(Cl)cc2Cl)c1-c1ccc(Cl)cc1
- IC50 [1]: 11 nM

SMILES: CCC(C)(NC(=O)c1nn(-c2ccc(Cl)cc2Cl)c(-c2ccc(Cl)cc2)c1C)c1noc(C(F)(F)F)n1 (stereo not given)
- IC50 [1]: 6 nM

SMILES: CCOC(=O)COc1ccc(-c2c(CC)c(C(=O)NC(C)(C)c3nnnn3C)nn2-c2ccc(Cl)cc2Cl)cc1
- inhibition [15]: 32%

SMILES: CCc1c(C(=O)NC(C)(C)c2nnnn2C)nn(-c2ccc(Cl)cc2Cl)c1-c1ccc(Br)cc1
- IC50 [1]: 0.1 nM
- inhibition in vivo at 10 mg/kg [5]: 83%
- IC50 [10]: 22700 nM
- inhibition [11]: 27%

SMILES: CCc1c(C(=O)NC(C)(C)c2nnnn2C)nn(-c2ccc(Cl)cc2Cl)c1-c1ccc(OC)cc1
- IC50 [1]: 5 nM

SMILES: Cc1c(C(=O)NC(C)(C)c2nc(CC(=O)O)cs2)nn(-c2ccc(Cl)cc2Cl)c1-c1ccc(Cl)cc1
- inhibition [2]: 50%

SMILES: Cc1c(C(=O)NC(C)(C)c2nc(C(F)(F)F)cs2)nn(-c2ccc(Cl)cc2Cl)c1-c1ccc(Cl)cc1
- IC50 [1]: 2 nM
